Data on 1 compound can be found in US9795595B2, “Methods for treating cancer” (Boston Biomedical, Inc., priority 2014, dated 2017).

Each structure is given as a SMILES string.

The subject of one data set is nuclear STK33. The data set can be described thus: Needle biopsy tumor samples before and after 28 days treatment, phase I patients: nuclear STK33 staining. In kind it is in vivo, human. The settings on record: after 28 days treatment, patient with positive NANOG and STK33 staining. As to the method: (§1) Understanding the clinical relevance of the stemness markers and identifying predictive biomarkers assists clinical development by selecting patients that will most likely to derive clinical benefit from treatment with the Compound of the Invention. In current studies, we studied stemness gene marker in biopsy tumor as well as archival tumor samples from patients. […] Archival tissue from patients receiving the Compound of the Invention was analyzed via immunohistochemistry to determine whether response to the drug was correlated with either NANOG or STK33. […] Importantly, 90.9% of the tumors with STK33 nuclear staining were also positive for nuclear NANOG staining and there was a significant correlation between nuclear STK33 and nuclear NANOG (P<0.0022).

The test system of another data set is cancer stem cell markers. The data set can be described thus: Cancer stem cell markers in biopsied tumor tissue of study patients. The data set is classed as in vivo, human. The protocol:
Escalating doses from 10 mg to 450 mg once daily were administered to 26 patients. Maximum tolerated dose (MTD) was not reached. […] Of 20 evaluable patients, 11 (55%) had stable disease (SD) with a median time to progression of 16 weeks.
Encouraging signs of anti-tumor activity have been observed in pretreated patients with advanced cancer.

The subject of the next data set is Advanced Solid Tumors. The data set can be described thus: Dose escalation study of the Compound of the Invention in adult patients with advanced solid tumors (Phase I). The data set is classed as in vivo. From the text: In this study, the Compound of the Invention was given orally, continuously, in 28-day cycles until disease progression, unacceptable toxicity, or other discontinuation criteria were met.

The next data set has as its system nuclear NANOG. The data set can be described thus: Needle biopsy tumor samples before and after 28 days treatment, phase I patients: nuclear NANOG staining. In kind it is in vivo, human. The settings on record: after 28 days treatment, patient with positive NANOG and STK33 staining. The protocol:
as §1

As for `CCN(CC)CCNC(=O)c1c(C)[nH]c(/C=C2\C(=O)Nc3ccc(-c4csc(-c5ccccc5)n4)cc32)c1C` [Compound of the Invention], in the data set on nuclear STK33, the “Reduction of nuclear STK33” value is “potent in reducing nuclear NANOG and STK33”. Also, the “Inhibition of cancer stem cell markers” value in the data set with cancer stem cell markers is recorded as “inhibition of cancer stem cell markers was observed”. For the same compound, in the data set with Advanced Solid Tumors, the “Patients with tumor regression and/or prolonged stable disease (≧16 weeks), percent” value is on record as 50%. Further, the “Grade 3 diarrhea, number of subjects” value in the data set with Advanced Solid Tumors (450 mg once daily) was 2 subjects. Also, the “Number of Patients with minor regression or SD ≧16 wks.” value worked out at 3 with Advanced Solid Tumors (Colorectal Cancer, 5 patients evaluable); 1 with Advanced Solid Tumors (Gastric/GEJ Adenocarcinoma, 1 patient evaluable); 2 with Advanced Solid Tumors (Head & Neck Cancer, 2 patients evaluable); 1 with Advanced Solid Tumors (Hepatocellular Carcinoma, 2 patients evaluable); 1 in the data set with Advanced Solid Tumors (Non-Small Cell Lung Cancer, 1 patient evaluable); 1 in the data set on Advanced Solid Tumors (Pancreatic Neuroendocrine, 1 patient evaluable). The “Number of Patients with minor regression or SD ≧16 wks.” value in the data set on Advanced Solid Tumors (Renal Cell Carcinoma, 1 patient evaluable) is given as 1. Also, the “Maximum tolerated dose (MTD)” value in the data set on Advanced Solid Tumors (escalating doses 10 mg to 450 mg once daily, oral, 28-day cycles, 26 patients) is reported as “not reached”. The Adverse events entry with Advanced Solid Tumors (including grade 1, 2 diarrhea, abdominal cramping, nausea, anorexia) is given as “mild GI adverse events”. Further, the “Patients with stable disease (SD), number” value in the data set on Advanced Solid Tumors (of 20 evaluable patients) is reported as 11. In addition, the “Patients with stable disease (SD), percent” value in the data set on Advanced Solid Tumors (of 20 evaluable patients) is 55%. The “Patients with tumor regression and/or prolonged stable disease (≧16 weeks), number” value with Advanced Solid Tumors (of those patients with SD) is reported as 10. Besides, the “Recommended Phase II Dose (RP2D)” value in the data set on Advanced Solid Tumors (once daily, oral) is 300 mg. Moreover, in the data set on Advanced Solid Tumors (oral, once daily), the “Pharmacokinetic exposure relative to predicted therapeutic level” value is “well above the predicted therapeutic level”. Further, in the data set on Advanced Solid Tumors (oral, once daily), the “Plasma concentration versus dose” value is listed as “dose-dependent increases in plasma concentration up to 300 mg once daily”. The Tolerability result in the data set with Advanced Solid Tumors (oral, once daily, 10 mg to 450 mg) is “well tolerated”. For the same compound, the Overall survival result with Advanced Solid Tumors (patients with high levels of nuclear STK33 in archival tissue, P<0.0097) is recorded as “improved”. Further, the “Median progression free survival (PFS)” value in the data set on Advanced Solid Tumors (patients with high levels of nuclear STK33 in archival tissue, P<0.0273) is recorded as “improved”. Further, in the data set on Advanced Solid Tumors (patients with stable disease), the “Median time to progression” value is recorded as 16 weeks. Also, in the data set on nuclear NANOG, the “Reduction of nuclear NANOG” value is on record as “potent in reducing nuclear NANOG”.
